From ChEMBL document CHEMBL1201862, “PubChem BioAssay data set” (2004)
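96-well plates; 48 h exposure; 5 concentrations. Endpoints by linear interpolation between flanking doses. Not reached: highest tested concentration assigned. Abbreviation: GI50, concentration required for 50% inhibition of growth.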 Active and inactive are the calls of the source. Rule as the data show it: active = GI50 up to about 1.1 µM and inactive = higher.

What was measured:
Assay in all cases: NCI-60 cell line screen, 48 h
A549 = test system: A549
BT-549 = test system: BT-549
CAKI-1 = test system: CAKI-1
EKVX = test system: EKVX
HCC 2998 = test system: HCC 2998
HCT-116 = test system: HCT-116
HOP-62 = test system: HOP-62
HT-29 = test system: HT-29
KM12 = test system: KM12
M14 = test system: M14
NCI-H226 = test system: NCI-H226
NCI-H522 = test system: NCI-H522
OVCAR-8 = test system: OVCAR-8
SK-MEL-28 = test system: SK-MEL-28
SK-MEL-2 = test system: SK-MEL-2
SK-MEL-5 = test system: SK-MEL-5
SK-OV-3 = test system: SK-OV-3
U-251 = test system: U-251
UACC-62 = test system: UACC-62
IGROV-1 = test system: IGROV-1

Measured: GI50

COc1cc2c(cc1OC)C(C)N(C)c1c-2c(OC(C)=O)cc2cc(OC)c(OC)cc12 (stereo not drawn)
inactive: A549 16.9 µM | BT-549 18.2 µM | CAKI-1 16.1 µM | EKVX 13.2 µM | HCC 2998 15.6 µM | HCT-116 13.9 µM | HOP-62 21.3 µM | HT-29 8.04 µM | KM12 14.2 µM | M14 11.7 µM | NCI-H226 2.33 µM | NCI-H522 3.34 µM | OVCAR-8 9.4 µM | SK-MEL-28 19.9 µM | SK-MEL-2 13.5 µM | SK-MEL-5 4.67 µM | SK-OV-3 27.7 µM | U-251 21.7 µM | UACC-62 12.5 µM

C=C1C(C(O)C[C@H](C)C2O[C@@]3(CCCCO3)CCC2C)O[C@@H]2CCC3(CCC(/C=C/[C@@H](C)C4CC(C)=CC5(O4)O[C@H](C[C@](C)(O)C(=O)O)CCC5O)O3)OC2[C@@H]1O (stereo partly drawn)
active: A549 0.0267 µM | BT-549 0.00681 µM | CAKI-1 0.0107 µM | EKVX 0.00614 µM | HCC 2998 0.00171 µM | HCT-116 0.00381 µM | HT-29 0.00828 µM | IGROV-1 0.0217 µM | KM12 0.00374 µM | M14 0.00176 µM | NCI-H226 0.00405 µM | NCI-H522 0.00182 µM | OVCAR-8 0.00693 µM | SK-MEL-28 0.00227 µM | SK-MEL-2 0.00253 µM | SK-MEL-5 0.00308 µM | SK-OV-3 0.00955 µM | U-251 0.00105 µM | UACC-62 0.00347 µM

CCOC(=O)C(=[N+]=[N-])C(=O)CN1C(=O)c2ccccc2C1=O
inactive: A549 > 100 µM | BT-549 > 100 µM | CAKI-1 > 100 µM | EKVX > 100 µM | HCC 2998 > 100 µM | HCT-116 > 100 µM | HOP-62 > 100 µM | HT-29 > 100 µM | IGROV-1 > 100 µM | M14 > 100 µM | NCI-H522 > 100 µM | OVCAR-8 > 100 µM | SK-MEL-28 > 100 µM | SK-MEL-2 > 100 µM | SK-MEL-5 > 100 µM | SK-OV-3 > 100 µM | U-251 > 100 µM | UACC-62 > 100 µM

Cc1c(C)c2c(c(N)c1C#N)C(=O)N(O)C2=O
inactive: A549 > 100 µM | BT-549 > 100 µM | CAKI-1 > 100 µM | EKVX > 100 µM | HCC 2998 > 100 µM | HCT-116 > 100 µM | HT-29 > 100 µM | IGROV-1 > 100 µM | KM12 > 100 µM | M14 > 100 µM | NCI-H226 > 100 µM | NCI-H522 > 100 µM | OVCAR-8 > 100 µM | SK-MEL-28 > 100 µM | SK-MEL-2 > 100 µM | SK-MEL-5 > 100 µM | SK-OV-3 > 100 µM | U-251 > 100 µM | UACC-62 > 100 µM

COc1cccc(N2C(=O)CSC2c2cc(OC)c(OC)c(OC)c2)c1 (stereo not drawn)
inactive: A549 37.1 µM | BT-549 22.1 µM | CAKI-1 30.8 µM | EKVX 49.7 µM | HCC 2998 22.7 µM | HCT-116 31.8 µM | HT-29 33.1 µM | IGROV-1 44.6 µM | KM12 12.2 µM | M14 27.7 µM | NCI-H226 26.7 µM | NCI-H522 26.4 µM | OVCAR-8 36 µM | SK-MEL-28 62.2 µM | SK-MEL-2 > 100 µM | SK-MEL-5 19.8 µM | SK-OV-3 26.7 µM | U-251 34.8 µM | UACC-62 34.2 µM

O=C(/C=C1\N=C(c2ccccc2)N(c2nc3ccc(Sc4ccccc4)cc3[nH]2)C1=O)/C=C/c1ccccc1
inactive: A549 41.1 µM | BT-549 31.1 µM | CAKI-1 31.3 µM | EKVX 43.4 µM | HCC 2998 17.4 µM | HCT-116 32.8 µM | HOP-62 39.7 µM | HT-29 30.3 µM | IGROV-1 45.4 µM | KM12 26.7 µM | M14 33.3 µM | NCI-H522 20.3 µM | OVCAR-8 24.5 µM | SK-MEL-28 46.5 µM | SK-MEL-2 18.7 µM | SK-MEL-5 21.5 µM | SK-OV-3 40.9 µM | U-251 27.7 µM | UACC-62 22.9 µM
